Here are results for one compound from patent US5525627A, “Esters of acyl carnitines with long-chain aliphatic alcohols and pharmaceutical compositions containing same having antimycotic activity” (Sigma-Tau Industrie Farmaceutiche Riunite S.p.A., priority 1992, dated 1996).

Where “and” joins values, the source holds several entries; their conditions need not be identical. Equal values may be shown once.

Test [1] has as its system filamentous fungi. Nature of the test: MIC / MFC for filamentous fungi, all strains. The class given is cell-based, Aspergillus, Fusarium, Mucor, Penicillium. To be noted: versus susceptible strains; read-out: Mean MIC values. The essentials: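 Conidia from 72-hour Sabouraud agar cultures were collected by washing with Sabouraud medium containing Tween 80. They were then inoculated at 5.0×10^4 CFU/ml, and the run and MIC/MFC readings followed the yeast-like fungi procedure.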

For test [2], the system named is C. albicans ISS 1. Nature of the test: Experimental subcutaneous infection with Candida albicans in mice. The test is classed as in vivo, Candida albicans in mice (male CD1 outbred). As to the method: Male CD1 outbred mice (IFFA Credo) aged 8 weeks were used (4 animals per group).
A pathogenic strain of Candida was used, namely C. albicans ISS 1.
The infected animals were treated with ST 722 dissolved in saline, and Miconazole diluted in saline from a stock solution containing 1% Dimethyl Formamide.
From an overnight broth culture of C. albicans in Sabouraud broth, a fungal suspension was prepared in sterile saline containing 5.0×10^5 cells/mi. An inoculum of 0.5 ml of this suspension was injected subcutaneously into the abdominal wall of each animal.
The compounds were then administered by subcutaneous injection in the same area of the fungal challenge at the dose of 50 mcg (in 0.2 ml of saline) immediately after the inoculum and following 48 and 96 hours (150 total mcg per animal).
Then, 48 hours following the last treatment (6 days after the challenge with Candida), the animals were sacrificed, and the abdominal wall as well as the peritoneum were dissected out.
The excised tissues were then homogenized in 5 ml of sterile saline with a Potter-Elvehjem tissue grinder. The resulting suspensions, appropriately diluted, where plated onto Petri dishes containing a selective agar medium (BIGGY agar), which allows to easily detect the yeast Colony Forming Units (CFU/ml).
The number of colonies scored in a series of dilutions for each single sample consents to calculate the number of yeast cells present in the infected tissue sample as follows: [formula] Where Zi is the number of dilutions performed, Ni is the number of plates prepared for each dilution, and Ci is the total number of yeast cells scored in each dilution.

Test [3] has as its system dermatophytic fungi. Nature of the test: MIC / MFC for dermatophytic fungi, all strains. The class given is cell-based, Trichophyton, Microsporum, Epidermophyton. To be noted: versus susceptible strains. On the procedure: The following strains were used: Trichophyton menthagrophytes ATCC 9533, Trichophyton rubrum IHEM 4274, Microsporum canis IHEM 3522, Epydermophyton floccosum IHEM 3495. The tested substances were: ST 722, ST 1033, ST 1037, ST 1050, ST 1051, ST 1052,. ST 1053.
The assay was performed following the same procedure described for the yeasts, by using 7-day fungi cultures grown at 30° C. in Potato Dextrose agar, and harvested with Sabouraud broth and Tween 80 (0.5%).
After washing with Yeast Nitrogen Base, supplemented with asparagine and glucose (as carbon source), the fungal suspension was fragmented using a tissue grinder until the largest clumps or aggregates were undetectable within the grinder. This fungal suspension was then appropriately diluted in YNB to yield a concentration of 2.0×10^5 infective particles/ml (small mycelium fragments, micro-and macroaleuriospores).
Volumes of 100 μl both of the fungal suspensions and substance solutions, two-fold serially diluted in assay medium, were distributed into each well of a microtiter plate (96 wells, round bottom), which was incubated at 35° C. for 96 hours.

In test [4] the test system is Candida tropicalis (5705). Nature of the test: MIC for yeast and yeast-like strains. The class given is cell-based. To be noted: 48 hours, 35° C., read-out: Minimal Inhibitory Concentration (MIC). In a few lines: (§1)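 Broth microdilution in Yeast Nitrogen Base with 0.15% asparagine and 1.0% glucose, buffered with 0.165 M MOPS. Inocula from overnight Sabouraud broth cultures (48 h for Cryptococcus), final approx. 5.0×10^4 CFU/ml, mixed with equal volume of compound solution.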

Test [5] has as its system Candida albicans (A 54). The experiment in a line: MIC for yeast and yeast-like strains. The class given is cell-based. To be noted: 48 hours, 35° C., read-out: Minimal Inhibitory Concentration (MIC). In a few lines: as §1
Test [6] relates to Candida albicans (562). Nature of the test: MIC for yeast and yeast-like strains. To be noted: 48 hours, 35° C., read-out: Minimal Inhibitory Concentration (MIC). The class given is cell-based. The essentials: as §1
Test [7] relates to Candida albicans (Ca 2). The experiment in a line: MIC for yeast and yeast-like strains. The class given is cell-based. To be noted: 48 hours, 35° C., read-out: Minimal Inhibitory Concentration (MIC). In a few lines:
as §1

Test [8] concerns Cryptococcus neoformans (4711). The experiment in a line: MIC for yeast and yeast-like strains. The class given is cell-based. To be noted: 48 hours, 35° C., read-out: Minimal Inhibitory Concentration (MIC). In a few lines: as §1
In test [9] the test system is Torulopsis candida (D.S.). Nature of the test: MIC for yeast and yeast-like strains. The test is classed as cell-based. To be noted: Suzukiozyma candida; 48 hours, 35° C.; read-out: Minimal Inhibitory Concentration (MIC). The essentials:
as §1

Test [10] concerns Candida krusei (ISS 1). The experiment in a line: MIC for yeast and yeast-like strains. The test is classed as cell-based. To be noted: Pichia kudriavzevii; 48 hours, 35° C.; read-out: Minimal Inhibitory Concentration (MIC). The essentials:
as §1

The subject of test [11] is Saccharomyces cerevisiae (ATCC 7752). The experiment in a line: MIC for yeast and yeast-like strains. The class given is cell-based. To be noted: ATCC7752, 48 hours, 35° C., read-out: Minimal Inhibitory Concentration (MIC). The essentials:
as §1

Take `CCCCCCCCCCCOC(=O)C[C@H](C[N+](C)(C)C)OC(=O)CC(C)C` [ST 722, isovaleryl-L-carnitine undecyl ester chloride]: the MIC is 16.4 µg/mL in [1]; 28.1 µg/mL in test [3]; 3.12 µg/mL in test [4]; 3.12 µg/mL in [5]; 3.12 µg/mL in [6]; 1.56 µg/mL in [7]. In addition, the MIC was 1.56 µg/mL in test [8], 6.25 µg/mL in [9], 3.12 µg/mL in test [10] and 3.12 µg/mL in test [11]. Further, the CFU/mouse entry in test [2] (individual samples 1-4, 50 mcg s.c. at 0, 48 and 96 hours (150 total mcg per animal)) was “sterile and 1.36 × 10^2 CFU/mouse”. The “effect on the infection with Candida” value in [2] (s.c., 150 total mcg per animal) is reported as “substantially inhibits the infection with Candida”. Moreover, in test [2] (s.c., 150 total mcg per animal), the “sterile samples out of 4” value worked out at 3 samples.
